Results published in ChEMBL document CHEMBL1155446, “Imidazo[4,5-b]pyridine derivatives as inhibitors of Aurora kinases: lead optimization studies toward the identification of an orally bioavailable preclinical development candidate” (J Med Chem, 2010).
In brackets after ≈: the same amount, converted by molar mass.

Tests used:
HCT-116 [1] = assay: Growth inhibition of human HCT116 cells after 72 hrs by MTT assay; format: functional; details: HCT-116, 72 h
Aurora kinase A = molecular target: T1, Aurora kinase A (Homo sapiens, UniProt O14965)
T1 sequence (O14965 whole entry): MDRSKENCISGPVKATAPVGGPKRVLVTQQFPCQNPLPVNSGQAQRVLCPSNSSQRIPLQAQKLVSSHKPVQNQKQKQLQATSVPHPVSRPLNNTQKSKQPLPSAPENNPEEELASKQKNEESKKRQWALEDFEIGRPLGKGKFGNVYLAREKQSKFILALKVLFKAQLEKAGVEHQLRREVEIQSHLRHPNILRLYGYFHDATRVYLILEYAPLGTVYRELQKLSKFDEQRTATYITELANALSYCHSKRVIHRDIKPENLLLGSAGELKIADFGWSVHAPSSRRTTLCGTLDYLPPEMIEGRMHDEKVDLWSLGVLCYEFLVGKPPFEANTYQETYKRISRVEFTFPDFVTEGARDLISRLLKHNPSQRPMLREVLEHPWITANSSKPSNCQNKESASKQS
Description: Inhibition of human recombinant Aurora A expressed in baculovirus system

[2] = Metabolic stability in CD1 mouse liver microsomes assessed as compound remaining at 10 uM after 30 mins by LC-MS/MS analysis; format: ADME, Microsome; details: read-out: Stability
[3] = Oral bioavailability in BALB/c mouse at 5 mg/kg; format: ADME, organism-based; details: in vivo
[4] = Aqueous solubility of the compound; format: physicochemical; details: buffer
[5] = molecular target: Voltage-gated inwardly rectifying potassium channel KCNH2 (Homo sapiens, UniProt Q12809); assay: (§1) Inhibition of human ERG at 10 uM; details: 10 µM
[6] = Permeability by PAMPA assay; format: ADME; details: read-out: permeability
HCT-116 [7] = assay: Growth inhibition of human HCT116 cells at 10 uM after 72 hrs by MTT assay; format: functional; details: HCT-116, 72 h, read-out: GI
[8] = molecular target: T2, Aurora kinase A (Homo sapiens) (UniProt O14965); assay: Inhibition of Aurora A at 1 uM
T2 sequence (whole entry): T1 sequence (O14965 whole entry)

[9] = molecular target: Angiopoietin-1 receptor (Homo sapiens) (UniProt Q02763); assay: Inhibition of TEK at 1 uM
hERG (KCNH2) = hERG (KCNH2) (Homo sapiens, UniProt Q12809); assay: as §1
[10] = molecular target: Aurora kinase B (Homo sapiens) (UniProt Q96GD4); assay: Inhibition of Aurora B at 1 uM
[11] = molecular target: T3, Ephrin type-B receptor 4 (Homo sapiens) (UniProt P54760); assay: Inhibition of EPHB4 at 1 uM
T3 sequence (whole entry): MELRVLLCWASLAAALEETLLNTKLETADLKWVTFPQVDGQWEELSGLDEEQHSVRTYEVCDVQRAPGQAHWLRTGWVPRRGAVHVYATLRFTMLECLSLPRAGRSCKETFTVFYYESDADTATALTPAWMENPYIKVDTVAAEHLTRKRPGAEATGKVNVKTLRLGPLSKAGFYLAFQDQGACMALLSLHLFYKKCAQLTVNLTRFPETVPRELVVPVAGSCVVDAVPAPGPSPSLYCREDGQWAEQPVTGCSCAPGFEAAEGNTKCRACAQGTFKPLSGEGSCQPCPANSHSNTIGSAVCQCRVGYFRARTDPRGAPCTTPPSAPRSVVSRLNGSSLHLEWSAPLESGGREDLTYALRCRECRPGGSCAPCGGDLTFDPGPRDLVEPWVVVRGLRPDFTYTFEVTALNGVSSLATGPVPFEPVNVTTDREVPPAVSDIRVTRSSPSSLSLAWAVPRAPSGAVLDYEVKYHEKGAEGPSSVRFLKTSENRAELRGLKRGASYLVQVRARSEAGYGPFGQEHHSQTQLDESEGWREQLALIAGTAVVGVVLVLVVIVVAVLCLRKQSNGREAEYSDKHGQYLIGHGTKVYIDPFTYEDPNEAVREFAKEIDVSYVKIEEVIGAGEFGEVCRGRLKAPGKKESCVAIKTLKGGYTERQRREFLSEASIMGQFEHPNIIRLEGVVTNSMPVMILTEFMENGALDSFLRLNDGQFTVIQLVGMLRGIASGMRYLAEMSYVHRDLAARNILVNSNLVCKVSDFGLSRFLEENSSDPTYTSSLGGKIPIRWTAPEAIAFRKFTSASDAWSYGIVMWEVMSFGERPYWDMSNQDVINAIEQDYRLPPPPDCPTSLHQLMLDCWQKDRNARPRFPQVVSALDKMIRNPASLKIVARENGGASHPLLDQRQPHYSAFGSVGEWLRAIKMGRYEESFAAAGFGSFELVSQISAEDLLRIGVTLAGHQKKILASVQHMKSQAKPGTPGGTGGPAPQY

[12] = molecular target: Vascular endothelial growth factor receptor 1 (Homo sapiens) (UniProt P17948); assay: Inhibition of FLT1 at 1 uM
[13] = molecular target: Vascular endothelial growth factor receptor 2 (Homo sapiens) (UniProt P35968); assay: Inhibition of KDR at 1 uM
[14] = molecular target: Tyrosine-protein kinase Lck (Homo sapiens) (UniProt P06239); assay: Inhibition of LCK at 1 uM
[15] = molecular target: Hepatocyte growth factor receptor (Homo sapiens) (UniProt P08581); assay: Inhibition of MET at 1 uM
[16] = molecular target: High affinity nerve growth factor receptor (Homo sapiens) (UniProt P04629); assay: Inhibition of NTRK1 at 1 uM
[17] = molecular target: Platelet-derived growth factor receptor beta (Homo sapiens) (UniProt P09619); assay: Inhibition of PDGFRbeta at 1 uM

Chain of hERG (KCNH2) (Q12809 whole entry): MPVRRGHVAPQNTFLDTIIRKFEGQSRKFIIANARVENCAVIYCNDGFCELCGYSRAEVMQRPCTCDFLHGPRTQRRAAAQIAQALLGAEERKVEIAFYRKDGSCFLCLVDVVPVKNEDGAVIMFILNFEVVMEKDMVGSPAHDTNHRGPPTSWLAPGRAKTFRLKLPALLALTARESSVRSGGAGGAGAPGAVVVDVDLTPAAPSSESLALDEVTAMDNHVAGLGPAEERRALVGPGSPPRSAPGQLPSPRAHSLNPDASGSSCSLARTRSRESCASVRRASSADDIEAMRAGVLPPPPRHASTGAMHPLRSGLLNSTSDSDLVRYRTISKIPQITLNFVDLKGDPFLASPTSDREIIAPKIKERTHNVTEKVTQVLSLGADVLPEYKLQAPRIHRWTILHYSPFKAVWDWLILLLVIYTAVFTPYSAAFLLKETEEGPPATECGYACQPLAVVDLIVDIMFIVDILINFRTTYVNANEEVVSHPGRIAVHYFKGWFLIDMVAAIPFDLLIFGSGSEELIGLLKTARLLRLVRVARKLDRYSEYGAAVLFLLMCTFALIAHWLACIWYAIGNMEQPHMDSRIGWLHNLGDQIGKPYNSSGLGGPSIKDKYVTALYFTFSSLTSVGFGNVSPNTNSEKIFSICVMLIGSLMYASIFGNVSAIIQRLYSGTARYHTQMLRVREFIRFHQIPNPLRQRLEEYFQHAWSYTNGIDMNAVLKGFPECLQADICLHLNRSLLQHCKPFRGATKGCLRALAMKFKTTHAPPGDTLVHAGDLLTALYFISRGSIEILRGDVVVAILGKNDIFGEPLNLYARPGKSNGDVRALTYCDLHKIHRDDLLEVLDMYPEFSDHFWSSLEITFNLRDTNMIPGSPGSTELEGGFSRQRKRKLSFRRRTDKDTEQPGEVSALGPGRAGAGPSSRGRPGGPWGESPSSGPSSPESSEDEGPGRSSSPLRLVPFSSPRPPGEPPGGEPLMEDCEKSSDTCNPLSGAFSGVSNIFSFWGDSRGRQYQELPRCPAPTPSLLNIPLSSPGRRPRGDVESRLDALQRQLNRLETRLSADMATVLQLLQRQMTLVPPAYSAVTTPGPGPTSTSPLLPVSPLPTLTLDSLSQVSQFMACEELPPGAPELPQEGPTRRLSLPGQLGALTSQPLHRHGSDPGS
Chain of Voltage-gated inwardly rectifying potassium channel KCNH2 (Q12809 whole entry): as above
Chain of Vascular endothelial growth factor receptor 2 (Homo sapiens) (P35968 whole entry): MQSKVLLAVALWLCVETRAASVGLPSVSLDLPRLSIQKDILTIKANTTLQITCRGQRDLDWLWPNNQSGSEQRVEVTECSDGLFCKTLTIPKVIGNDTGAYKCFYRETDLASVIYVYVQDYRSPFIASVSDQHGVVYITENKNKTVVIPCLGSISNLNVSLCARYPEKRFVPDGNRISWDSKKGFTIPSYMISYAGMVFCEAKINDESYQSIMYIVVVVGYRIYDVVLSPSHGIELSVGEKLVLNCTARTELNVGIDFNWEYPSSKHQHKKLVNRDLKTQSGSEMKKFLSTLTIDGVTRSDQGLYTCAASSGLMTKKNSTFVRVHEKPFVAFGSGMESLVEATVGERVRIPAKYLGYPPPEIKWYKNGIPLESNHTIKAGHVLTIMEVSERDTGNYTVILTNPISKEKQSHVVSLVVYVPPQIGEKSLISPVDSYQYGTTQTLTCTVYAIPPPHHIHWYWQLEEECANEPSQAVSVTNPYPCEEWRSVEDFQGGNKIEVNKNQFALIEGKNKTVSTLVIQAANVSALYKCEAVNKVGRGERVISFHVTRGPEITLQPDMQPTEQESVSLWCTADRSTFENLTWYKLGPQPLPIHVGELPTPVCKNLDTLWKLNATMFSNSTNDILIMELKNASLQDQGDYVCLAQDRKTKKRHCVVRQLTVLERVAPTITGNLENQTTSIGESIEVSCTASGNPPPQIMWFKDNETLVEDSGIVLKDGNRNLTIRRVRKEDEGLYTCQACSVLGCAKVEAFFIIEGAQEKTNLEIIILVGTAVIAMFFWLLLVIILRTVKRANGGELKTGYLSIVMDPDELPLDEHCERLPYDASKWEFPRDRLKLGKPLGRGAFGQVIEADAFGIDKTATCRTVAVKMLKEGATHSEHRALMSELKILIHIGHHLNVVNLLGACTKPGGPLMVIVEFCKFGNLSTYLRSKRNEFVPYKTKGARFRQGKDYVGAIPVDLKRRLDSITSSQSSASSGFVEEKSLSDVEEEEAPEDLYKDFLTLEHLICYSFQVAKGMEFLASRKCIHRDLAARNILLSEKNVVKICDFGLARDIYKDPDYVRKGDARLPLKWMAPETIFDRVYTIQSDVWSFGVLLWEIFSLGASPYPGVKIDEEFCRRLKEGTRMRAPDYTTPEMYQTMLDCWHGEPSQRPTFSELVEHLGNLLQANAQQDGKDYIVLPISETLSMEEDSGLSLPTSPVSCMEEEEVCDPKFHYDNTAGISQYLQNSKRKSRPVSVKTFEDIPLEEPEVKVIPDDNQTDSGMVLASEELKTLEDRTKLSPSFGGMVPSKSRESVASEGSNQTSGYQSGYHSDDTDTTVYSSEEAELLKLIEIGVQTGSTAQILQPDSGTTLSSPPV
Chain of Tyrosine-protein kinase Lck (Homo sapiens) (P06239 2-509 limits assumed): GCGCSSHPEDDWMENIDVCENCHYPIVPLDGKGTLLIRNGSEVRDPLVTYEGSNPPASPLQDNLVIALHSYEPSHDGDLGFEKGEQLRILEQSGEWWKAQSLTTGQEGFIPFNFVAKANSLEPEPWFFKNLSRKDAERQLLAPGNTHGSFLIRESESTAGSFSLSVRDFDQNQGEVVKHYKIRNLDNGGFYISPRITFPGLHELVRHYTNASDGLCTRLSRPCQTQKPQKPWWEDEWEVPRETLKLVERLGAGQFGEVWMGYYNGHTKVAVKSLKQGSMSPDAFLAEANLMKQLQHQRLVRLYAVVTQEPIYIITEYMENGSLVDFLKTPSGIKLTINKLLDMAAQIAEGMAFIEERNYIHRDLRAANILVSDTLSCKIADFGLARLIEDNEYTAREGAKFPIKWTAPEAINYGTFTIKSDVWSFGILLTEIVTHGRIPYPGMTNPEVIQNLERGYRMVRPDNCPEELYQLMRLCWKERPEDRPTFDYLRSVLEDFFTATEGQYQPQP
Chain of Aurora kinase B (Homo sapiens) (Q96GD4 whole entry): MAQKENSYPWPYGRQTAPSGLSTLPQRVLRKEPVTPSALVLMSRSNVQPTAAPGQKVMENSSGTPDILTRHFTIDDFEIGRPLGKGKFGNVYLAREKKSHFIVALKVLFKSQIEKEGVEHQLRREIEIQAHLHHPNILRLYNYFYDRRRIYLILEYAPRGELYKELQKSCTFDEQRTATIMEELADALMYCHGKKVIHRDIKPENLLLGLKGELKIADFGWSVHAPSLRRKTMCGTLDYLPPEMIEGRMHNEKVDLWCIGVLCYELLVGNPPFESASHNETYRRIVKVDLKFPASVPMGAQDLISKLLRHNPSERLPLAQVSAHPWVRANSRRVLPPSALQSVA

| Structure (SMILES) | GI50 (HCT-116 [1]) [µM] | IC50 (Aurora kinase A) [µM] | other results |
| --- | --- | --- | --- |
| O=C(CN1CCN(c2c(Br)cnc3[nH]c(-c4ccccc4)nc23)CC1)Nc1nccs1 | 3 | 0.081 | – |
| CN(C)c1ccc(-c2nc3c(N4CCN(C(=O)Nc5ccccc5)CC4)c(Br)cnc3[nH]2)cc1 | 10 | 0.277 | – |
| Cc1cc(CN2CCN(c3c(Cl)cnc4nc(-c5ccc(CN)cc5)[nH]c34)CC2)no1 | 0.65 | 0.055 | remaining at 0.5 h, 10 µM [2]: > 50% |
| Cn1ccnc1CN1CCN(c2c(Br)cnc3[nH]c(-c4ccc(CN5CCOCC5)cc4)nc23)CC1 | 1.5 | 0.03 | – |
| COc1ccc(-c2nc3c(N4CCN(Cc5cncnc5)CC4)c(Br)cnc3[nH]2)cc1 | 0.4 | 0.008 | – |
| COc1ccc(-c2nc3c(N4CCN(CC(=O)Nc5nccs5)CC4)c(Cl)cnc3[nH]2)cc1 | 0.9 | 0.052 | – |
| Cc1cc(CN2CCN(c3c(Br)cnc4nc(-c5ccc(CN(C)C)cc5)[nH]c34)CC2)no1 | 0.23 | 0.014 | remaining at 0.5 h, 10 µM [2]: > 50% |
| Brc1cnc2[nH]c(-c3ccc(CN4CCOCC4)cc3)nc2c1N1CCN(Cc2cncnc2)CC1 | 0.42 | 0.006 | – |
| CN(C)c1ccc(-c2nc3c(N4CCN(CC(=O)Nc5nccs5)CC4)c(Br)cnc3[nH]2)cc1 | 0.48 | 0.055 | – |
| CN(C)c1ccc(-c2nc3c(N4CCNCC4)c(Br)cnc3[nH]2)cc1 | 0.95 | 0.365 | – |
| CN(C)c1ccc(-c2nc3c(N4CCN(CC(=O)Nc5ccccc5)CC4)c(Cl)cnc3[nH]2)cc1 | 2.55 | 0.115 | – |
| Cc1cc(CN2CCN(c3c(Cl)cnc4nc(-c5ccc(OCCO)cc5)[nH]c34)CC2)no1 | 0.45 | 0.02 | remaining at 0.5 h, 10 µM [2]: > 50% |
| CN(C)c1ccc(-c2nc3c(N4CCN(CC(=O)Nc5nccs5)CC4)c(C#N)cnc3[nH]2)cc1 | 1.03 | 0.05 | – |
| Brc1cnc2[nH]c(-c3ccc(CN4CCOCC4)cc3)nc2c1N1CCN(Cc2cscn2)CC1 | – | 0.006 | – |
| Cc1cc(CN2CCN(c3c(Br)cnc4[nH]c(-c5ccc(N6CCNCC6)cc5)nc34)CC2)no1 | 0.1 | – | remaining at 0.5 h, 10 µM [2]: > 50% |
| Brc1cnc2[nH]c(-c3ccc(CN4CCOCC4)cc3)nc2c1N1CCN(Cc2cccnc2)CC1 | 0.28 | – | bioavailability [3]: 13%; solubility [4]: 0.03 mg/mL (≈ 54.7 µM) |
| O=C(CN1CCN(c2c(Cl)cnc3[nH]c(-c4ccc(CN5CCOCC5)cc4)nc23)CC1)Nc1nccs1 | 0.36 | 0.003 | – |
| CN(C)c1ccc(-c2nc3c(N4CCN(S(=O)(=O)c5ccccc5)CC4)c(Br)cnc3[nH]2)cc1 | – | 0.178 | – |
| COc1ccc(-c2nc3c(N4CCN(Cc5cscn5)CC4)c(Br)cnc3[nH]2)cc1 | 0.32 | 0.004 | remaining at 0.5 h, 10 µM [2]: 45% |
| CN(C)c1ccc(-c2nc3c(N4CCN(c5ccccc5)CC4)c(Br)cnc3[nH]2)cc1 | – | 0.258 | – |

| Structure (SMILES) | GI50 (HCT-116 [1]) [µM] | IC50 (Aurora kinase A) [µM] | other results |
| --- | --- | --- | --- |
| CC(c1ccccc1)N1CCN(c2c(Cl)cnc3[nH]c(-c4ccc(N(C)C)cc4)nc23)CC1 (stereo not given) | 0.9 | 0.079 | – |
| COc1ccc(-c2nc3ncc(C4CC4)c(N4CCN(CC(=O)Nc5nccs5)CC4)c3[nH]2)cc1 | 2.5 | 0.053 | – |
| Cc1cc(CN2CCN(c3c(Br)cnc4[nH]c(-c5ccc(Cn6cccn6)cc5)nc34)CC2)no1 | 0.12 | – | – |
| COc1ccc(-c2nc3c(N4CCN(Cc5nccn5C)CC4)c(Br)cnc3[nH]2)cc1 | 1.5 | 0.032 | – |
| CN(C)c1ccc(-c2nc3c(N4CCN(CC(=O)Nc5cccc(Cl)c5)CC4)c(Cl)cnc3[nH]2)cc1 | 2.67 | 0.075 | – |
| CC(C)CN1CCN(c2c(Br)cnc3[nH]c(-c4ccc(N(C)C)cc4)nc23)CC1 | 0.97 | 0.21 | – |
| COc1ccc(-c2nc3c(N4CCN(Cc5cc(C)on5)CC4)c(Br)cnc3[nH]2)cc1 | 0.54 | 0.017 | inhibition (INH) [5]: Not Active; bioavailability [3]: 23%; Papp [6]: 60 nm/s; solubility [4]: < 0.01 mg/mL; remaining at 0.5 h, 10 µM [2]: > 50% |
| O=C(CN1CCN(c2c(Br)cnc3[nH]cnc23)CC1)Nc1nccs1 | – | 0.517 | inhibition of growth at 10 µM (HCT-116 [7]): 40% |
| Clc1ccc(CN2CCN(c3c(Br)cnc4[nH]c(-c5ccc(CN6CCOCC6)cc5)nc34)CC2)cc1 | 0.6 | – | inhibition [8]: 98%; inhibition [9]: 5%; inhibition at 10 µM (hERG (KCNH2)): 53%; inhibition [10]: 60%; inhibition [11]: 4%; inhibition [12]: 35%; inhibition [13]: 35%; inhibition [14]: 8%; inhibition [15]: 3%; inhibition [16]: 33%; inhibition [17]: 15% |
| CN(C)Cc1ccc(-c2nc3c(N4CCN(CC(=O)Nc5nccs5)CC4)c(Br)cnc3[nH]2)cc1 | 1 | 0.016 | – |
| CC(c1ccncc1)N1CCN(c2c(Br)cnc3[nH]c(-c4ccc(N(C)C)cc4)nc23)CC1 (stereo not given) | 0.9 | 0.085 | – |
| Cc1cc(CN2CCN(c3c(Br)cnc4[nH]c(-c5ccc(CN)cc5)nc34)CC2)no1 | 0.24 | 0.01 | remaining at 0.5 h, 10 µM [2]: > 50% |
| Cc1cc(CN2CCN(c3c(Br)cnc4[nH]c(-c5ccc(CN6CCOCC6)cc5)nc34)CC2)no1 | 0.06 | 0.002 | – |
| Cc1cc(CN2CCN(c3c(Cl)cnc4[nH]c(-c5ccc(Cn6cccn6)cc5)nc34)CC2)no1 | 0.45 | – | – |
| Cc1cc(CN2CCN(c3c(Br)cnc4nc(-c5ccc(CN6CCNCC6)cc5)[nH]c34)CC2)no1 | 0.078 | 0.01 | solubility [4]: 0.87 mg/mL (≈ 1580 µM); remaining at 0.5 h, 10 µM [2]: > 50% |
| Cc1cc(CN2CCN(c3c(Br)cnc4[nH]c(-c5ccc(OCCO)cc5)nc34)CC2)no1 | 0.28 | 0.03 | solubility [4]: 0.01 mg/mL (≈ 19.5 µM); remaining at 0.5 h, 10 µM [2]: > 50% |
| COc1ccc(-c2nc3c(N4CCN(Cc5cccnc5)CC4)c(Br)cnc3[nH]2)cc1 | 1.15 | 0.009 | – |
| CN(C)c1ccc(-c2nc3c(N4CCN(Cc5ccncc5)CC4)c(Br)cnc3[nH]2)cc1 | 0.7 | 0.055 | – |
| COc1ccc(-c2nc3c(N4CCN(CC5CC5)CC4)c(Br)cnc3[nH]2)cc1 | 0.83 | 0.65 | – |
| CN(C)c1ccc(-c2nc3c(N4CCN(CC(=O)Nc5cccnc5)CC4)c(Br)cnc3[nH]2)cc1 | 1.65 | 0.118 | – |
